In patent publication US12370192B2, “Azole-fused pyridazin-3(2H)-one derivatives” (TAKEDA PHARMACEUTICAL COMPANY LIMITED, priority 2019, dated 2025):

What was measured:
[1] = biological target: T1, human GPR139 receptor (Homo sapiens, UniProt Q6DWJ6); assay: GPR139 Competition Binding (membrane-based, tritium-labeled ligand); conditions: T-REx-CHO membranes with human GPR139; 6.5 nM tritium-labeled ligand; 11-point curve, 30 μM maximum concentration; read-out: GPR139 Binding Affinity (pKi) (converted)
T1 construct: expressed in transfected cells; host or cells: T-REx-CHO (Thermo Fisher Scientific), doxycycline-induced
T1 sequence (Q6DWJ6 1-353): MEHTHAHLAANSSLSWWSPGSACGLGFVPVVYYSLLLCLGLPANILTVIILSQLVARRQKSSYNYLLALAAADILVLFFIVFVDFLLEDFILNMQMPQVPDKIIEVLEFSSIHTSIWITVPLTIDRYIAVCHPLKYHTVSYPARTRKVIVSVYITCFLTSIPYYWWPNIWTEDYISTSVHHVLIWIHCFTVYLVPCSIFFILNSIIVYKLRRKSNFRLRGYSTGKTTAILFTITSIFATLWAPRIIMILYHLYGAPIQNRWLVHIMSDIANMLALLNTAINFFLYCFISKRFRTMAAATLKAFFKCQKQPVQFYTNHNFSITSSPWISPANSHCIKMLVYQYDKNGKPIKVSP
Method: OPR139 Competition Binding
This membrane-based assay measures the ability of compounds to competitively bind GPR139 in stably transfected TREx™-CHO membranes. To prepare the membranes, T-REx™-CHO (Thermo Fisher Scientific®) cells are stably expressed with human GPR139 receptor, whose expression is controlled by a tetracycline-inducible element. The cells are cultured in medium containing F-12K nutrient mixture-Kaighn's modification, 10% tetracycline-free FBS, Blasticidin S HCl (10 μg/mL) and Hygromycin B (200 μg/mL). GPR139 receptor expression is induced for 18 hours with 2 μg/mL doxycycline (Sigma D9891) in growth media. After addition of doxycycline, cells are harvested in PBS and pelleted by centrifugation for 5 minutes at 200×G. Liquid is aspirated off and cells are resuspended in ice cold lysis buffer (20 mM HEPES/5 mM EDTA pH 7.4/1× Roche® protease inhibitor). Samples are vortexed until homogenous and then placed on ice and homogenized using a Dounce homogenizer at 50% power (3 cycles, 10 strokes per cycle). Lysate is centrifuged at 4° C. for 10 minutes in a tabletop Sorvall® centrifuge at 2000×G. The supernatant is recovered and centrifuged in a Sorvall® ultracentrifuge at 35,000 rpm for 30 minutes at 4° C. The supernatant is discarded, and the remaining pellet resuspended in lysis buffer (20 mM HEPES/0.1 mM EGTA/Roche® protease inhibitor). Membrane protein concentration is determined using Thermo Fisher® BCA quantification kit and is aliquoted into microtubes. Tubes are snap frozen in liquid nitrogen and stored at −80° C. Prior to use, the membranes are removed from cold storage, thawed to room temperature, vortexed until homogenous and diluted in assay buffer (20 mM HEPES pH 7.3, 5 mM MgCl2, 1 mM CaCl2), 1× Thermo Scientific® Halt™ protease inhibitor (78429)).
The assay is run in 96-well, polypropylene, v-bottom plates (Greiner Bio-One® 651201). Test compound in DMSO is added to the wells of each plate (11-point dose response curve, 30 μM maximum concentration, 3-fold serial dilution). A fixed amount of tritium-labeled ligand, (S)-2-(2,3-dimethyl-7-oxothieno[2,3-d]pyridazin-6(7H)-yl)-N-(1-(4-methoxyphenyl-2-t)propan-2-yl)acetamide (Quotient Bioresearch) in assay buffer (6.5 nM assay concentration) is added to each well of the assay plate, which is then agitated on a plate shaker for 30 seconds. Next, a fixed amount of membranes in assay buffer (2 μg membranes) is added to each well of the assay plate, which is then spun for 30 seconds at 300 rpm in a tabletop Eppendorf centrifuge, and then incubated at room temperature for 20 minutes. Using a Tomtec harvester, the contents of the assay plate are transferred to Filtermat A (PerkinElmer® No. 1450-421) which prior to use is pre-soaked in 0.5% PEI (Sigma P3143) for 3 hours and dried at room temperature overnight. Following transfer, the Filtermat is washed 5 times with cold wash buffer (20 mM HEPES pH 7.3, 100 mM NaCl). The Filtermat is dried using a microwave oven and placed in a sample bag (PerkinElmer® No. 1450-432) with a scintillator sheet (PerkinElmer® No. 1450-411). The scintillator sheet is melted to the Filtermat using a heat block set to 65° C., placed in a MicroBeta® cartridge and read using a MicroBeta® scintillation counter. Binding curves are generated with a four-parameter logistic equation using GraphPad Prism® 6 and the inhibition constant Ki is reported as pKi.

[2] = biological target: T1, human GPR139 receptor; assay: Measurement of GPR139 Activation Via Calcium Signaling (FLIPR, T-REx-CHO cells); assay type: cell-based; conditions: T-REx-CHO cells stably expressing human GPR139, 11-point dose response, 10 μM maximum concentration, read-out: GPR139 Potency (pEC50) (converted)
Method: Measurement of GPR139 Activation Via Calcium Signaling
This cell-based assay measures the ability of compounds to activate GPR139 in stably transfected T-REx™-CHO cells. T-REx™-CHO cells (Thermo Fisher Scientific®) are stably expressed with human GPR139 receptor, whose expression is controlled by a tetracycline-inducible element. The cells are cultured in medium containing F-12K nutrient mixture-Kaighn's modification, TripleLE™ Express (1×)-phenol red, Dulbecco's phosphate-buffered saline (1×), 10% tetracycline-free FBS, Blasticidin S HCl (10 μg/mL) and Hygromycin B (200 μg/mL). The cells are introduced into the wells of a 384-well black clear bottom plate (Costar®) at 10,000 cells/well. GPR139 receptor expression is induced with 2 μg/mL doxycycline (Sigma D9891). The plate is allowed to stand at room temperature for 10-30 minutes and then incubated at 37° C. and 5% CO2 for 17 hours prior to assay.
Culture media is removed from cells and 45 μL of 1× calcium dye (2.5 mM) is added to each well and incubated at 37° C. and 5% CO2 for 40 minutes. The plate is removed from the incubator and allowed to stand at RT for 20 minutes without a plate cover prior to measurement of calcium signaling. The calcium dye is prepared by adding 10 mL of assay buffer (Hank's Balanced Salt Solution (1×), 1 mM HEPES at pH 7.4) to one vial of calcium dye (FLIPR® Calcium 5 Assay Kit; Molecular Devices) at room temperature, vortexing the mixture until homogenous, and transferring the dye to a 250 mL flask using 10 mL of assay, buffer to rinse the vial. The dye is subsequently transferred to a conical flask, which is filled to the 200 mL mark with assay buffer, and 1 mL of […] probenecid solution (142.68 mg/mL in 1M NaOH aq) is added.
Example compounds suspended in DMSO are received from compound management in microtiter plates (0.25 μL/well) and are diluted in assay buffer (25 μL). Following incubation of the cell plate, the Example compounds are added to the cells (11-point dose response, 10 μM maximum concentration) using a FLIPR® Tetra system (Molecular Devices) and fluorescence is measured continuously for 1 minute. EC50 curves are generated with a four-parameter logistic equation using GraphPad Prism® 6, and activation of GPR139 for each example compound is reported as pEC50.

Compound | Ki [1] | EC50 [2]
Cc1ccc([C@H](C)NC(=O)Cn2nc(C)c3cnn(-c4ccccc4)c3c2=O)cc1 [Example 1] | 55 nM | 51.3 nM
COc1ccc([C@H](C)NC(=O)Cn2nc(C)c3cnn(-c4ccccc4)c3c2=O)cc1 [Example 2, (S)—N-(1-(4-methoxyphenyl)ethyl)-2-(4-methyl-7-oxo-1-phenyl-1,7-dihydro-6H-pyrazolo[3,4-d]pyridazin-6-yl)acetamide] | 871 nM | 56.2 nM
CC(C)c1nn(CC(=O)N[C@@H](C)c2ccc(C(F)(F)F)cc2)c(=O)c2c1cnn2-c1ccccc1 [Example 4, (S)-2-(4-isopropyl-7-oxo-1-phenyl-1,7-dihydro-6H-pyrazolo[3,4-d]pyridazin-6-yl)-N-(1-(4-(trifluoromethyl)phenyl)ethyl)acetamide] | 91.2 nM | ≥ 10000 nM
Cc1nn(CC(=O)N[C@@H](C)c2ccc(OC(F)(F)F)cc2)c(=O)c2c1cnn2-c1ccccc1 [Example 5, (S)-2-(4-methyl-7-oxo-1-phenyl-1,7-dihydro-6H-pyrazolo[3,4-d]pyridazin-6-yl)-N-(1-(4-(trifluoromethoxy)phenyl)ethyl)acetamide] | 93.3 nM | 224 nM
Cc1ccc([C@H](C)NC(=O)Cn2nc(C)c3cnn(-c4ccccc4)c3c2=O)c(F)c1 [Example 6, (S)—N-(1-(2-fluoro-4-methylphenyl)ethyl)-2-(4-methyl-7-oxo-1-phenyl-1,7-dihydro-6H-pyrazolo[3,4-d]pyridazin-6-yl)acetamide] | 23.4 nM | ≥ 10000 nM
CC(C)c1nn(CC(=O)N[C@@H](C)c2ccc(OC(F)(F)F)cc2)c(=O)c2c1cnn2-c1ccccc1 [Example 7, (S)-2-(4-isopropyl-7-oxo-1-phenyl-1,7-dihydro-6H-pyrazolo[3,4-d]pyridazin-6-yl)-N-(1-(4-(trifluoromethoxy)phenyl)ethyl)acetamide] | 162 nM | ≥ 10000 nM
Cc1nn(CC(=O)N[C@@H](C)c2ccc(C(F)(F)F)cc2)c(=O)c2c1cnn2C(C)(C)C [Example 14, (S)-2-(1-(tert-butyl)-4-methyl-7-oxo-1,7-dihydro-6H-pyrazolo[3,4-d]pyridazin-6-yl)-N-(1-(4-(trifluoromethyl)phenyl)ethyl)acetamide] | 37.2 nM | 617 nM
C[C@H](NC(=O)Cn1ncc2ccn(C)c2c1=O)c1ccc(C(F)(F)F)cc1 [Example 164, (S)-2-(1-methyl-7-oxo-1,7-dihydro-6H-pyrrolo[2,3-d]pyridazin-6-yl)-N-(1-(4-(trifluoromethyl)phenyl)ethyl)acetamide] | 200 nM | 
Cc1nn(C2CC2)c2cnn(CC(=O)N[C@H](c3ccccc3)C3CC3)c(=O)c12 [Example 173, (S)—N-(cyclopropyl(phenyl)methyl)-2-(1-cyclopropyl-3-methyl-4-oxo-1,4-dihydro-5H-pyrazolo[3,4-d]pyridazin-5-yl)acetamide] | 30200 nM | 

The next lines start with the values.

Ki [1] | EC50 [2] | Compound
72.4 nM | ≥ 10000 nM | Cc1ccc([C@H](C)NC(=O)Cn2nc(C(C)C)c3cnn(-c4ccccc4)c3c2=O)cc1 [Example 3, (S)-2-(4-isopropyl-7-oxo-1-phenyl-1,7-dihydro-6H-pyrazolo[3,4-d]pyridazin-6-yl)-N-(1-(p-tolyl)ethyl)acetamide]
27.5 nM | ≥ 10000 nM | Cc1ccc([C@H](C)NC(=O)Cn2nc(C(C)C)c3cnn(-c4ccccc4)c3c2=O)c(F)c1 [Example 8, (S)—N-(1-(2-fluoro-4-methylphenyl)ethyl)-2-(4-isopropyl-7-oxo-1-phenyl-1,7-dihydro-6H-pyrazolo[3,4-d]pyridazin-6-yl)acetamide]
120 nM | 79.4 nM | COc1ccc([C@H](C)NC(=O)Cn2nc(C)c3c(c(C(C)C)nn3C)c2=O)cc1F [Example 10, (S)—N-(1-(3-fluoro-4-methoxyphenyl)ethyl)-2-(3-isopropyl-1,7-dimethyl-4-oxo-1H-pyrazolo[3,4-d]pyridazin-5(4H)-yl)acetamide]
107 nM | 2750 nM | Cc1ccc([C@H](C)NC(=O)Cn2nc(C(C)C)c3cnn(C(C)(C)C)c3c2=O)cc1 [Example 11, (S)-2-(1-(tert-butyl)-4-isopropyl-7-oxo-1,7-dihydro-6H-pyrazolo[3,4-d]pyridazin-6-yl)-N-(1-(p-tolyl)ethyl)acetamide]
33.9 nM | 2140 nM | CC(C)c1nn(CC(=O)N[C@@H](C)c2ccc(C(F)(F)F)cc2)c(=O)c2c1cnn2C(C)(C)C [Example 12, (S)-2-(1-(tert-butyl)-4-isopropyl-7-oxo-1,7-dihydro-6/1-pyrazolo[3,4-d]pyridazin-6-yl)-N-(1-(4-(trifluoromethyl)phenyl)ethyl)acetamide]
20.9 nM | 102 nM | Cc1ccc([C@H](C)NC(=O)Cn2nc(C)c3cnn(C(C)(C)C)c3c2=O)cc1 [Example 13, (S)-2-(1-(tert-butyl)-4-methyl-7-oxo-1,7-dihydro-6H-pyrazolo[3,4-d]pyridazin-6-yl)-N-(1-(p-tolyl)ethyl)acetamide]
57.5 nM | 617 nM | Cc1nn(CC(=O)N[C@@H](C)c2ccc(OC(F)(F)F)cc2)c(=O)c2c1cnn2C(C)(C)C [Example 15, (S)-2-(1-(tert-butyl)-4-methyl-7-oxo-1,7-dihydro-6H-pyrazolo[3,4-d]pyridazin-6-yl)-N-(1-(4-(trifluoromethoxy)phenyl)ethyl)acetamide]
